Experiment [1] deals with ECFCs. As to the kind of experiment: Inhibition studies (FI 14, GM6001, blebbistatin) in ECFC-loaded D-hydrogels. Format: cell-based, human. Details: ECFC aspect ratio (cell spreading) / integrin cluster size and area covered / integrin intensity and number / cellular protrusions and filopodia / sprouting: unit of the concentration uncertain. To be noted: for vascular bed formation (tube length and volume): 3 days, blebbistatin 60 mM, FI 14 10 mM. On the procedure: For 2D screening of the FI 14 (FI-14, R 95.0%; Sigma-Aldrich), the ECFCs were seeded into a 96-well plate at a cell density of 10000 cells/well in EGM-2 media (Lonza) with 10% FBS (Hyclone). After 1 day of culture, 100 μL of EGM-2 media containing increased concentrations of FI 14 ranging from 0 to 10 μM were added per well and culture for additional 24 hr following by staining for phospho-FAK (Tyr397;ThermoFisher Scientific) as described below. Biological triplicates were tested for each FI 14 concentrations. For inhibition studies, ECFCs were suspended in the hydrogel precursor as above with the addition of 10 mM of FI-14 (Sigma-Aldrich) or GM6001 (1 mg mL^−1; Sigma-Aldrich), 60 mM Blebbistain (Sigma-Aldrich) or vehicle control (DMSO; Sigma-Aldrich). The corresponding culture media also supplied with the corresponding inhibitor/vehicle control at the same concentration. Media was replenish every 24 h till analysis.

The test system of experiment [2] is ECFCs. Described as above. In kind it is cell-based, human. Details: unit of the concentration uncertain. Particulars: 0.1 (unit uncertain), versus controls.
A further experiment concerns mUPS spheroids. As to the kind of experiment: Sarcoma spheroid encapsulation in hydrogels. To be noted: co-encapsulated in quick-relaxing hydrogels. In kind it is cell-based, murine. The procedure:
Spheroids were formed using hanging droplet culture. Briefly, cell monolayers were grown until ˜75% confluent, rinsed with PBS, and passaged with 0.25% Trypsin-EDTA. Hanging droplets of 10,000 cells/20 μL droplet were formed on the inside of the cover of a 60 mm […]. 10 mL of PBS were placed in the bottom of the dish to act as a hydration chamber. Spheroids were cultured as hanging droplets for three days prior to encapsulation in hydrogels. 10 μl of media was added to each droplet on the second day of droplet culture.
For spheroid encapsulation, a similar protocol was followed with the adjustments for spheroids. We first collected 12 spheroids in a 1.5 mL Eppendorf tube, centrifuged for 3 minutes, and then pipetted off the media. All subsequent steps were identical to single-cell encapsulation. Cells in hydrogels were cultured under standard conditions and daily media changes of 200 μL.
Light microscopy images of encapsulated cells were recorded daily at 4×, 10×, and 20× magnifications starting at post-encapsulation (PE) Day 0. For spheroid area quantification, 10× images were grouped by individual spheroid and the area of the spheroid was manually traced in FIJI (NIH) for each day. Days 1-3 were normalized to the size of the spheroid on Day 0. […]

Setting [3] is: 60 (unit uncertain), 24 h, ECFCs in D-hydrogels.

With `Nc1cc(N)c(N)cc1N` [FI 14], the “ECFC aspect ratio (cell spreading)” value in the experiment with ECFCs [1] (10 (unit uncertain), 24 h, versus control D-hydrogels) is on record as “cell spreading is reduced”. In addition, in the experiment with ECFCs [1] (10 (unit uncertain), ECFCs in D-hydrogels), the sprouting entry was “significant reduction”. In addition, in the experiment with ECFCs [1] (24 h, ECFCs in D-hydrogels), the “phosphorylation of MLC” value is given as “reduces the phosphorylation of MLC”. The “integrin β1 and integrin aV mRNA expression” value with ECFCs [1] (24 h, versus D-hydrogel controls) is recorded as “downregulation”. The “MMP1 and MMP9 mRNA levels” value in the experiment with ECFCs [1] (24 h, versus untreated controls) was “significant reduction”. The “MT1-MMP expression at protein and mRNA levels” value with ECFCs [1] (24 h in culture) is on record as “significantly lower expression”. Besides, in the experiment with ECFCs [1] (ECFCs in D-hydrogels), the “vascular bed formation (tube length and volume)” value is “decrease in tube length and volume”.

With `CNC(=O)[C@H](Cc1c[nH]c2ccccc12)NC(=O)[C@@H](CC(=O)NO)CC(C)C` [GM6001], the “stiffness of ECFC-loaded D-hydrogels” value with ECFCs [1] (day 3, versus without MMP inhibitor) was “significantly stiffer”. Moreover, in the experiment with ECFCs [2], the “tubulogenesis of ECFCs” value is “inhibited”.

Regarding `Cc1ccc2c(c1)C(=O)C1(O)CCN(c3ccccc3)C1=N2` (centres unmarked) [blebbistatin], in the experiment on ECFCs [1] (setting [3]), the “cellular protrusions and filopodia” value was “decrease”; the “integrin cluster size and area covered” value is “significant decrease”; the “integrin intensity and number” value was “did not affect”. The “vascular bed formation (tube length and volume)” value with ECFCs [1] (ECFCs in D-hydrogels) was “shorter tube length and reduced vessel volume”. For the same molecule, the “spheroid size under contractility inhibition” value with mUPS spheroids is recorded as “not sufficient to fully mirror spheroid shrinkage”.

For the origin of these results see patent US20240310364A1, “TUNABLE DYNAMIC AND NON-DYNAMIC HYDROGEL SYSTEMS” (The Johns Hopkins University, priority 2021, published 2024).
